Read-outs that look alike come from different tables or passages of the source.
Tests used:
human GPR55 = molecular target: T1, human GPR55 (Homo sapiens, UniProt Q9Y2T6); experiment: β-Arrestin recruitment assay (PathHunter) at GPR55; format: cell-based; settings: for Human GPR55 % activation: percent in brackets beside EC50 >10 µM; for Human GPR55 % inhibition: percent in brackets beside IC50
T1 construct: β-galactosidase enzyme fragment (PathHunter complementation tag)
Procedure: (§1) Recruitment of β-arrestin to the respective receptor was detected by using β-galactosidase enzyme fragment complementation technology (β-arrestin PathHunter™ assay, DiscoverX, Fremont, CA, USA) as previously described. Data were obtained from three independent experiments, performed in duplicates. Data were analyzed using Graph Pad Prism Version 4.02 (San Diego, CA, USA).

human GPR18 = molecular target: T2, human GPR18 (Homo sapiens, UniProt Q14330); experiment: β-Arrestin recruitment assay (PathHunter) at GPR18; format: cell-based; settings: for Human GPR18 % activation: percent in brackets beside EC50 >10 µM; for Human GPR18 % inhibition: percent in brackets beside IC50
T2 construct: β-galactosidase enzyme fragment (PathHunter complementation tag)
T2 sequence (Q14330 1-331): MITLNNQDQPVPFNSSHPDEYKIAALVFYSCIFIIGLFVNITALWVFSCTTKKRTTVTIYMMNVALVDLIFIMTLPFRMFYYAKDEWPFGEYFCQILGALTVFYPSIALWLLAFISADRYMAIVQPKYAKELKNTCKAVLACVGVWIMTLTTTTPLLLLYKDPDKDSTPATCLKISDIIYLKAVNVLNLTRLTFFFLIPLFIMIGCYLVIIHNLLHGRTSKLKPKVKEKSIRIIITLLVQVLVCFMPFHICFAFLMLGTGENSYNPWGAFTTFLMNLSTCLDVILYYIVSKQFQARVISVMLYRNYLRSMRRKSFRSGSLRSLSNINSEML
Procedure: as §1

Human CB2 [1] = settings: read-out: Ki Human CB2 (literature) (converted), cited from earlier work
CB1 receptor [2] = molecular target: T3, CB1 receptor (Homo sapiens, UniProt P21554); experiment: biochemical; format: binding; set-up: expressed in transfected cells; host or cells: CHO cells (membrane preparation); settings: for CB1 selectivity Ki CB2/KiCB1: Table S1, selectivity index from Ki values; for Ki: versus 0.1 nM [3H]CP55,940, CHO cell membranes, mean ± SEM of three to five experiments, read-out: Ki ± SEM Human CB1
Human CB1 [3] = settings: ref Blaazer et al. [33], cited from earlier work
CB2 receptor [4] = molecular target: T4, CB2 receptor (Homo sapiens, UniProt P34972); experiment: biochemical; format: binding; set-up: expressed in transfected cells; host or cells: CHO cells (membrane preparation); settings: for Ki: versus 0.1 nM [3H]CP55,940, CHO cell membranes, mean ± SEM of three to five experiments, read-out: Ki ± SEM Human CB2
CB1 receptor [5] = molecular target: T3, CB1 receptor; experiment: cell-based; format: cell-based; set-up: expressed in transfected cells; host or cells: CHO cells; settings: cAMP accumulation, forskolin 10 µM; test concentration 1 µM or 10 µM; normalized to CP55,940
CB2 receptor [6] = molecular target: T4, CB2 receptor; experiment: cAMP accumulation assay in CHO cells expressing CB2; format: cell-based; set-up: expressed in transfected cells; host or cells: CHO cells; settings: cAMP accumulation, forskolin 10 µM; test concentration 1 µM or 10 µM; normalized to CP55,940
Human CB1 [7] = settings: read-out: EC50 Human CB1 (literature, functional assay) (converted), cited from earlier work
Human CB2 [8] = settings: read-out: EC50 Human CB2 (literature, functional assay) (converted), cited from earlier work
[9] = Human GPR55 IC50, β-arrestin assay, antagonist mode
[10] = Table S1, selectivity index from Ki values

T4 sequence (P34972 whole entry): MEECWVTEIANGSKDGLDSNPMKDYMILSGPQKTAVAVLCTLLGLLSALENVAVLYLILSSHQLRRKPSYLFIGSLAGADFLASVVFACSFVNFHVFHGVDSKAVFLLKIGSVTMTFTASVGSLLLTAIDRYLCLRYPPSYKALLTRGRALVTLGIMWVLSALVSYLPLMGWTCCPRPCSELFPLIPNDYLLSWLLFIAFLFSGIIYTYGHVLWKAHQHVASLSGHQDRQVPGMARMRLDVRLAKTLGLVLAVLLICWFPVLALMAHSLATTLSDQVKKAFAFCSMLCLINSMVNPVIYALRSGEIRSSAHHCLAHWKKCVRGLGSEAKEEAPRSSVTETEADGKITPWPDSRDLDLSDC
T3 sequence (P21554 whole entry): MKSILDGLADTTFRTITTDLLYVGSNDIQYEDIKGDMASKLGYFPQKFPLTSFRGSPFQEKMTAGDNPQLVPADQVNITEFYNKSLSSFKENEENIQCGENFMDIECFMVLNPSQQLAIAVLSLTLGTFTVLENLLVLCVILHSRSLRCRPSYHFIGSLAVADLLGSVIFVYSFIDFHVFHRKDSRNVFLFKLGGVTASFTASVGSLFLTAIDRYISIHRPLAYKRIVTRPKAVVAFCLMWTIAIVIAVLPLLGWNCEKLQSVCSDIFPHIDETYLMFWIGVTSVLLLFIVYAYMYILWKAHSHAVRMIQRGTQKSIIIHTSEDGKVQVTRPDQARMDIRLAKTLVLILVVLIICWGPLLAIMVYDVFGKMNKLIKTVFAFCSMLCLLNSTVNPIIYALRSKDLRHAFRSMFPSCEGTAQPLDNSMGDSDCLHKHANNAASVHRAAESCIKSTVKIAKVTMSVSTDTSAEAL
T1 sequence (Q9Y2T6 whole entry, the tested form may be a part): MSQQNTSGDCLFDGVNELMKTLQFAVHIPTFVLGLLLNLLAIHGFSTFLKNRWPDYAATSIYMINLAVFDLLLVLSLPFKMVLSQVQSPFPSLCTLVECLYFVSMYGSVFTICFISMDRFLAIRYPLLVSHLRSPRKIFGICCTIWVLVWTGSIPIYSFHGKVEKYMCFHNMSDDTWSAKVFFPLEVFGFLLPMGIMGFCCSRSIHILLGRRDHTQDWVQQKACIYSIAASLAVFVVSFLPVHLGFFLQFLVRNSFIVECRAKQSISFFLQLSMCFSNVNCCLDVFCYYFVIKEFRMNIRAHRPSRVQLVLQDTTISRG

Row | Compound | EC50 (human GPR55) [nM] | IC50 (human GPR55; [9]) [nM] | Human GPR55 % activation (human GPR55; β-arrestin assay) [%] | Human GPR55 % inhibition (human GPR55; β-arrestin assay) [%] | EC50 (human GPR18) [nM] | IC50 (human GPR18) [nM] | Human GPR18 % activation (human GPR18; β-arrestin assay) [%] | Human GPR18 % inhibition (human GPR18; β-arrestin assay) [%] | CB1 selectivity Ki CB2/KiCB1 (CB1 receptor [2]) | Ki (CB1 receptor [2]) [nM] | Ki (CB2 receptor [4]) [nM] | CB2 selectivity Ki CB1/KiCB2 (CB2 receptor [4]; [10]) | EC50 (Human CB1 [7]; ref Banister et al. [28]) [nM] | EC50 (Human CB2 [8]; ref Banister et al. [28]) [nM] | further results
1 | CCCCCn1cc(C(=O)Nc2cccc3ccccc23)c2ccccc21 [Compound 4, NNEI] | > 10000 | > 10000 | 26 | 30 | > 10000 | > 10000 | 42 | −15 | 12.0 | 1.82 ± 0.35 | 21.9 ± 5.5 |  |  |  | Ki (Human CB2 [1]; ref Blaazer et al. [33]): 100 nM; pKi value at the CB1 receptor (Human CB1 [3]): 8.9; Ki (Human CB1 [3]; read-out: Ki Human CB1 (literature) (converted)): 1.25 nM
2 | CCCCCn1nc(C(=O)Nc2cccc3ccccc23)c2ccccc21 [Compound 8, MN-18] | > 10000 | > 10000 | 27 | 35 | > 10000 | > 10000 | 2 | 37 | 0.9 | 3.86 ± 0.9 | 3.47 ± 0.89 | 1.1 |  |  | efficacy at CB1 receptor (in words) (CB1 receptor [5]): lower efficacy than Δ^9-THC; efficacy at CB2 receptor (in words) (CB2 receptor [6]): lower efficacy than Δ^9-THC
3 | CCCCCn1cc(C(=O)NCc2ccccc2)c2ccccc21 [Compound 12, SDB-006] | > 10000 | > 10000 | −5 | 36 | > 10000 | > 10000 | −9 | 22 | 3.5 | 53 ± 1.1 | 188 ± 38 |  | 134 | 19 | 
4 | O=C(NCc1ccccc1)c1cn(CCCCCF)c2ccccc12 [Compound 13, 5F-SDB-006] | > 10000 | > 10000 | −3 | 11 | > 10000 | > 10000 | 13 | −24 | 6.0 | 71.9 ± 13.5 | 430 ± 73 |  | 50 | 123 | 
5 | CCCCCn1cc(C(=O)NC23CC4CC(CC(C4)C2)C3)c2ccccc21 [Compound 15, APICA] | > 10000 | 4770 ± 1690 | 11 |  | > 10000 | > 10000 | 8 | 44 |  | 6.52 ± 3.73 | 1.22 ± 0.14 |  | 128 | 29 | CB2 selectivity Ki CB1/KiCB2 (CB2 receptor [4]): 5.3
6 | O=C(NC12CC3CC(CC(C3)C1)C2)c1cn(CCCCCF)c2ccccc12 [Compound 16, STS-135 (5F-APICA)] | > 10000 | 3410 ± 470 | 1 |  | > 10000 | > 10000 | −2 | 30 |  | 2.51 ± 0.35 | 0.794 ± 0.071 | 3.2 | 51 | 13 | 
7 | CCCCCn1nc(C(=O)Oc2cccc3ccccc23)c2ccccc21 [Compound 22, SDB-005] | > 10000 | > 10000 | 8 | 23 | > 10000 | > 10000 | 15 | 24 |  | 3.59 ± 0.89 | 2.61 ± 1.07 | 1.4 | 116 | 140 | 
8 | O=C(Oc1cccc2ccccc12)c1nn(CCCCCF)c2ccccc12 [Compound 23, 5F-SDB-005] | > 10000 | > 10000 | 21 | 47 | > 10000 | > 10000 | 21 | 24 | 1.3 | 2.58 ± 1.09 | 3.41 ± 1.34 |  | 148 | 136 | 
9 | CCCCCn1cc(C(=O)Oc2cccc3cccnc23)c2ccccc21 [Compound 24, PB-22] | > 10000 | > 10000 | 15 | -12 | > 10000 | > 10000 | −18 | 26 | 1.4 | 0.318 ± 0.071 | 0.433 ± 0.106 |  | 5.1 | 2.8 | efficacy at CB1 receptor (in words) (CB1 receptor [5]): partial agonist with similar efficacy as Δ^9-THC; efficacy at CB2 receptor (in words) (CB2 receptor [6]): partial agonist with similar efficacy as Δ^9-THC
10 | CCCCCn1cc(C(=O)C23CC4CC(CC(C4)C2)C3)c2ccccc21 [Compound 35, AB001] | > 10000 | ~10000 | −14 | 56 | > 10000 | ~10000 | −12 | 62 |  | 33 ± 7.42 | 1.72 ± 0.15 | 19.2 |  |  | EC50 (Human CB1 [7]; ref Banister et al. [46]): 35 nM; EC50 (Human CB2 [8]; ref Banister et al. [46]): 45 nM
11 | CC1(C)C(C(=O)c2cn(CCCCCF)c3ccccc23)C1(C)C [Compound 38, XLR-11] |  |  |  |  |  |  |  |  |  | 29.4 ± 11 | 0.608 ± 0.151 | 48.4 | 98 | 83 | 
12 | CN1CCCCC(Cn2cc(C(=O)C3C(C)(C)C3(C)C)c3ccccc32)C1 (stereo not drawn) [Compound 44, AB005-azepane-isomer] |  |  | 21 | 18 |  |  | 11 | −6 |  | > 10000 | 212 ± 55 | 47.2 |  |  | EC50 (human GPR55; read-out: Human GPR55 EC50, β-arrestin assay, agonist mode): > 10000 nM; IC50 (human GPR55; read-out: Human GPR55 IC50, β-arrestin assay, antagonist mode): > 10000 nM; EC50 (human GPR18; read-out: Human GPR18 EC50, β-arrestin assay, agonist mode): > 10000 nM; IC50 (human GPR18; read-out: Human GPR18 IC50, β-arrestin assay, antagonist mode): > 10000 nM; affinity for the CB1 receptor (in words) (CB1 receptor [2]; at concentrations up to 10 µM): no affinity; inhibition of radioligand binding at human CB1 (percent in brackets) (CB1 receptor [2]; printed in brackets beside Ki ~/>10,000 nM, concentration not given): 13%; efficacy at CB1 receptor (in words) (CB1 receptor [5]): did not activate; efficacy at CB2 receptor (in words) (CB2 receptor [6]): did not activate
13 | CC1(C)C(C(=O)c2cn(CCN3CCOCC3)c3ccccc23)C1(C)C [Compound 45, A-796,260] | > 10000 |  | −1 |  | > 10000 | > 10000 | 20 | −10 |  |  | 8.02 ± 0.77 |  |  |  | Ki (Human CB2 [1]; ref Frost et al.[29]): 4.4 nM
14 | CC1(C)C(C(=O)c2cn(CC3CCOCC3)c3ccccc23)C1(C)C [Compound 46, A-834,735] | > 10000 |  | 8 |  | > 10000 | > 10000 | 6 | 6 |  |  | 0.566 ± 0.153 |  |  |  | IC50 (human GPR55; Human GPR55 IC50 (extrapolated), Extrapolated values, a full curve could not be determined due to limited solubility): 6880 ± 1510 nM; Ki (Human CB2 [1]; ref Frost et al.[29]): 0.21 nM
15 | CCCCCn1cc(C(=O)Nc2ccc3ccccc3c2)c2ccccc21 [non-fluorinated derivative of compound 7, reference compound] |  |  |  |  |  |  |  |  |  |  |  |  |  |  | pKi value at the CB1 receptor (Human CB1 [3]): 7.2

Source: paper PMC4929166, “Pharmacological evaluation of synthetic cannabinoids identified as constituents of spice” (Forensic Toxicology, 2016)
